Numbered stars: 1 amine (or outer) side, 2 acyl side, 3 side chain; on linkers, the order of the positions; unused ones are H or OH. Bridge positions count the residues as written; N and C are the ends. Square brackets hold non-standard residues; d marks the D form. Peptide text beside a SMILES is read from it. * marks the point of attachment. hPhe(3-Cl-4-CF3) = N[C@@H](CCc1ccc(C(F)(F)F)c(Cl)c1)C(=O)O; NMePhe(4-CF3) = CN[C@@H](Cc1ccc(C(F)(F)F)cc1)C(=O)O; X65 = O=C([C@H](CCCc1ccc(C(F)(F)F)cc1)N[*:1])[*:2]; 3Oxa8azabicyclo(3.2.1)octane = C1CC2COCC1N2*; NEtPhe(4-Me) = CCN[C@@H](Cc1ccc(C)cc1)C(=O)O; NEtPhe(2-Cl) = CCN[C@@H](Cc1ccccc1Cl)C(=O)O; NMePhe(4-Me) = CN[C@@H](Cc1ccc(C)cc1)C(=O)O; NMeNle(6-CHF2) = CN[C@@H](CCCCC(F)F)C(=O)O; NMedβ3hAla = C[C@H](CC(=O)[*:2])N(C)[*:1]; NMeAla(cPent) = CN[C@@H](CC1CCCC1)C(=O)O; NMeGly(cPent) = CN[C@H](C(=O)O)C1CCCC1; Phe(3-I) = N[C@@H](Cc1cccc(I)c1)C(=O)O; NMeCha = CN[C@@H](CC1CCCCC1)C(=O)O; NMeGly(cPr) = CN[C@H](C(=O)O)C1CC1; Hyp = O=C(O)[C@@H]1C[C@@H](O)CN1; NMeChg = CN[C@H](C(=O)O)C1CCCCC1; NMeF = CN[C@@H](Cc1ccccc1)C(=O)O; NMeI = CC[C@H](C)[C@H](NC)C(=O)O; NMeD = CN[C@@H](CC(=O)O)C(=O)O; NMeL = CN[C@@H](CC(C)C)C(=O)O; NMeV = CN[C@H](C(=O)O)C(C)C; d(β3hA) = C[C@@H](N)CC(=O)O; NMeS = CN[C@@H](CO)C(=O)O; Morpholide = C1CN(*)CCO1; NMeA = CN[C@@H](C)C(=O)O; NMeAib = CNC(C)(C)C(=O)O; Piperidide = C1CCN(*)CC1; Pyrrolidide = C1CCN(*)C1; dNMeA = CN[C@H](C)C(=O)O; Ac5c = NC1(C(=O)O)CCCC1; Aze = O=C(O)[C@@H]1CCN1; Ac4c = NC1(C(=O)O)CCC1; X80 = FC1(F)CCCN(*)C1; Sar = CNCC(=O)O; Propyl = CCC*
What follows are compounds tested against protein-protein interaction between Kras and SOS1 (biotin-tagged human Kras loaded with GDP, His-tagged human SOS1) (Homo sapiens (Human), UniProt P01116, G12D) (assay: Protein-protein interaction inhibition between Kras and SOS1 (KrasG12D-SOS PPI) using AlphaScreen). Conditions: not given.
Format: biochemical
Work on `CC[C@H](C)[C@@H]1NC(=O)[C@H](CC(C)C)N(C)C(=O)C[C@@H](C(=O)N2CCCC(F)(F)C2)N(C)C(=O)[C@H](CC(C)C)NC(=O)C(C)(C)N(C)C(=O)[C@H](Cc2ccc(OC)cc2)NC(=O)[C@H](Cc2cccc(I)c2)NC(=O)CN(C)C(=O)[C@H](Cc2ccc(C)cc2)N(C)C(=O)CN(C)C(=O)CN(C)C1=O` [Compound 2099, (3S,9S,12S,18S,27S,30S,34S)-34-(3,3-difluoropiperidine-1-carbonyl)-12-[(3-iodophenyl)methyl]-3,30-diisobutyl-9-[(4-methoxyphenyl)methyl]-1,6,6,7,16,19,22,25,31-nonamethyl-27-[(1S)-1-methylpropyl]-18-(p-tolylmethyl) 1,4,7,10,13,16,19,22,25,28,31-undecazacyclotetratriacontane-2,5,8,11,14,17,20,23,26,29,32-undecone] ([NMeL]I[Sar][Sar][NMePhe(4-Me)][Sar][Phe(3-I)]Y(Me)[NMeAib]L[NMeD]-X80; lactam N-11) yielded an IC50 of 25 nM.
With `CC[C@H](C)[C@@H]1NC(=O)[C@H](CC(C)C)N(C)C(=O)C[C@@H](C(=O)N(C)C)N(C)C(=O)[C@H](C2CCCC2)N(C)C(=O)C2(CCCC2)NC(=O)[C@H](CC(=O)N2CCOCC2)N(C)C(=O)[C@H](CCc2ccc(C(F)(F)F)c(Cl)c2)NC(=O)CN(C)C(=O)[C@H](CC2CCCCC2)N(C)C(=O)[C@@H]2CCN2C(=O)[C@H](C)N(C)C1=O` [Compound 2109] ([NMeL]I[NMeA][Aze][NMeCha][Sar][hPhe(3-Cl-4-CF3)][NMeD](Morpholide)[Ac5c][NMeGly(cPent)][NMeD]-NMe2; lactam N-11) the IC50 was 1.8 nM.

Same assay, conditions: AlphaScreen; biotin-tagged human Kras loaded with GDP, His-tagged human SOS1; read-out: KRAS G12D-SOS PPI IC50
Compound `CC[C@H](C)[C@@H]1NC(=O)[C@H](C)N(C)C(=O)C[C@@H](C(=O)N(C)C)N(C)C(=O)[C@H]([C@@H](C)CC)N(C)C(=O)C2(CCCC2)NC(=O)[C@H](Cc2ccccc2Cl)N(CC)C(=O)[C@H](CCc2ccc(C(F)(F)F)c(Cl)c2)NC(=O)CN(C)C(=O)[C@H](Cc2ccc(C)cc2)N(C)C(=O)[C@@H]2CCN2C(=O)[C@H](C)N(C)C1=O` [Compound 2163] ([NMeA]I[NMeA][Aze][NMePhe(4-Me)][Sar][hPhe(3-Cl-4-CF3)][NEtPhe(2-Cl)][Ac5c][NMeI][NMeD]-NMe2; lactam N-11) has an IC50 of 73 nM.
For `CC[C@H](C)[C@@H]1NC(=O)[C@H](CC2CCCC2)N(C)C(=O)C[C@@H](C(=O)N2CCCCC2)N(C)C(=O)[C@H](C(C)C)N(C)C(=O)C2(CCCC2)NC(=O)[C@@H]2CCCN2C(=O)[C@H](CCc2ccc(C(F)(F)F)c(Cl)c2)NC(=O)CN(C)C(=O)[C@H](CC2CCCCC2)N(C)C(=O)[C@@H]2CCN2C(=O)[C@H](C)N(C)C1=O` [Compound 37] ([NMeAla(cPent)]I[NMeA][Aze][NMeCha][Sar][hPhe(3-Cl-4-CF3)]P[Ac5c][NMeV][NMeD]-Piperidide; lactam N-11), the IC50 was 17 nM.
Compound `CC[C@H](C)[C@@H]1NC(=O)[C@H](CC(C)C)N(C)C(=O)C[C@@H](C(=O)N2CCCCC2)N(C)C(=O)[C@H](C(C)C)N(C)C(=O)C2(CCCC2)NC(=O)[C@@H]2CCCN2C(=O)[C@H](CCc2ccc(C(F)(F)F)c(Cl)c2)NC(=O)CN(C)C(=O)[C@H](CCCCC(F)F)N(C)C(=O)[C@@H]2CCN2C(=O)[C@H](C)N(C)C1=O` [Compound 78] ([NMeL]I[NMeA][Aze][NMeNle(6-CHF2)][Sar][hPhe(3-Cl-4-CF3)]P[Ac5c][NMeV][NMeD]-Piperidide; lactam N-11) has an IC50 of 1.6 nM.
With `CC[C@H](C)[C@@H]1NC(=O)[C@H](C)N(C)C(=O)C[C@@H](C)N(C)C(=O)[C@H](C2CCCCC2)N(C)C(=O)C(C)(C)N(C)C(=O)[C@@H]2CCCN2C(=O)[C@H](CCc2ccc(C(F)(F)F)c(Cl)c2)NC(=O)CN(C)C(=O)[C@H](CC2CCCCC2)N(C)C(=O)[C@@H]2CCN2C(=O)[C@H](C)N(C)C1=O` [Compound 2155] (cyclo([Aze][NMeCha][Sar][hPhe(3-Cl-4-CF3)]P[NMeAib][NMeChg][NMedβ3hAla][NMeA]I[NMeA])) the IC50 was 28 nM.
Compound `CC[C@H](C)[C@@H]1NC(=O)[C@H](CC(C)C)N(C)C(=O)C[C@@H](C)NC(=O)[C@H](C(C)C)N(C)C(=O)C2(CCCC2)NC(=O)[C@@H]2CCCN2C(=O)[C@H](CCc2ccc(C(F)(F)F)c(Cl)c2)NC(=O)CN(C)C(=O)[C@H](CC2CCCCC2)N(C)C(=O)[C@@H]2CCN2C(=O)[C@H](Cc2ccccc2)N(C)C1=O` [Compound 1628] (cyclo([Ac5c][NMeV][d(β3hA)][NMeL]I[NMeF][Aze][NMeCha][Sar][hPhe(3-Cl-4-CF3)]P)) has an IC50 of 67 nM.
For `CC[C@H](C)[C@@H]1NC(=O)[C@H](C)N(C)C(=O)C[C@@H](C)N(C)C(=O)[C@H](C(C)C)N(C)C(=O)C2(CCCC2)NC(=O)[C@@H]2CCCN2C(=O)[C@H](CCc2ccc(C(F)(F)F)c(Cl)c2)NC(=O)[C@@H](C)N(C)C(=O)[C@H](CC2CCCCC2)N(C)C(=O)[C@@H]2CCN2C(=O)[C@H](C)N(C)C1=O` [Compound 1773] (cyclo([Ac5c][NMeV][NMedβ3hAla][NMeA]I[NMeA][Aze][NMeCha][dNMeA][hPhe(3-Cl-4-CF3)]P)), the IC50 was 51 nM.
In the case of `CC[C@H](C)[C@@H]1NC(=O)[C@H](C(C)C)N(C)C(=O)C[C@@H](C(=O)N2CCCCC2)N(C)C(=O)[C@H](C(C)C)N(C)C(=O)C2(CCCC2)NC(=O)[C@@H]2CCCN2C(=O)[C@H](CCc2ccc(C(F)(F)F)c(Cl)c2)NC(=O)CN(C)C(=O)[C@H](CC2CCCCC2)N(C)C(=O)[C@@H]2CCN2C(=O)[C@H](C)N(C)C1=O` [Compound 1767] ([NMeV]I[NMeA][Aze][NMeCha][Sar][hPhe(3-Cl-4-CF3)]P[Ac5c][NMeV][NMeD]-Piperidide; lactam N-11), the IC50 is reported as 7.2 nM.
In the case of `CC[C@H](C)[C@@H]1NC(=O)[C@H](CC(C)C)N(C)C(=O)C[C@@H](C)NC(=O)[C@H](C2CCCC2)N(C)C(=O)C2(CCCC2)NC(=O)[C@@H]2CCCN2C(=O)[C@H](CCc2ccc(C(F)(F)F)c(Cl)c2)NC(=O)[C@@H](C)N(C)C(=O)[C@H](Cc2ccc(C(F)(F)F)cc2)N(C)C(=O)[C@@H]2CCN2C(=O)CN(C)C1=O` [Compound 1468] (cyclo([Ac5c][NMeGly(cPent)][d(β3hA)][NMeL]I[Sar][Aze][NMePhe(4-CF3)][dNMeA][hPhe(3-Cl-4-CF3)]P)), the IC50 is reported as 90 nM.
`CCCOC[C@H]1C(=O)N(C)CC(=O)N[C@@H](CCc2ccc(C(F)(F)F)c(Cl)c2)C(=O)N2CCC[C@H]2C(=O)NC2(CCCC2)C(=O)N(C)[C@@H](C2CCCC2)C(=O)N(C)[C@H](C(=O)N2C3CCC2COC3)CC(=O)N(C)[C@@H](CC(C)C)C(=O)N[C@@H]([C@@H](C)CC)C(=O)N[C@@H](C)C(=O)N2CC[C@H]2C(=O)N1C` [Compound 1299] ([NMeL]IA[Aze][NMeS](Propyl)[Sar][hPhe(3-Cl-4-CF3)]P[Ac5c][NMeGly(cPent)][NMeD]-{3Oxa8azabicyclo(3.2.1)octane}; lactam N-11) gave an IC50 of 3.6 nM.
Work on `CC[C@H](C)[C@@H]1NC(=O)[C@H](C)N(C)C(=O)C[C@@H](C(=O)N2CCCCC2)N(C)C(=O)[C@H](C2CCCCC2)N(C)C(=O)C2(CCCC2)NC(=O)[C@@H]2CCCN2C(=O)[C@H](CCCc2ccc(C(F)(F)F)cc2)NC(=O)CN(C)C(=O)[C@H](CC2CCCCC2)N(C)C(=O)CN(C)C(=O)CN(C)C1=O` [Compound 2055, (3S,9S,18S,21S,25S,28S,34S)-28-cyclohexyl-9-(cyclohexylmethyl)-7,10,13,16,21,22,26,29-octamethyl-18-[(1S)-1-methylpropyl]-25-(piperidine-1-carbonyl)-3-[3-[4-(trifluoromethyl)phenyl]propyl]spiro[1,4,7,10,13,16,19,22,26,29,32-undecazabicyclo[32.3.0]heptatriacontane-31,1′-cyclopentane]-2,5,8,11,14,17,20,23,27,30,33-undecone] ([NMeA]I[Sar][Sar][NMeCha][Sar][X65]P[Ac5c][NMeChg][NMeD]-Piperidide; lactam N-11) yielded an IC50 of 27 nM.
With `CC[C@H](C)[C@@H]1NC(=O)[C@H](CC(C)C)N(C)C(=O)C[C@@H](C(=O)N(C)C)NC(=O)[C@H](C2CCCC2)N(C)C(=O)C2(CCCC2)NC(=O)[C@@H]2CCCN2C(=O)[C@H](CCc2ccc(C(F)(F)F)c(Cl)c2)NC(=O)CN(C)C(=O)[C@H](CC2CCCCC2)N(C)C(=O)[C@@H]2CCN2C(=O)[C@H](C)N(C)C1=O` [Compound 677] ([NMeL]I[NMeA][Aze][NMeCha][Sar][hPhe(3-Cl-4-CF3)]P[Ac5c][NMeGly(cPent)]D-NMe2; lactam N-11) the IC50 was 4.1 nM.
With `CCO[C@@H]1C[C@H]2C(=O)NC3(CCC3)C(=O)N(C)[C@@H](C3CCCCC3)C(=O)N(C)[C@H](C)CC(=O)N(C)[C@@H](CC(C)C)C(=O)N[C@@H]([C@@H](C)CC)C(=O)N(C)[C@@H](C)C(=O)N3CC[C@H]3C(=O)N(CC)[C@@H](Cc3ccc(C)cc3)C(=O)N(C)CC(=O)N[C@@H](CCc3ccc(C(F)(F)F)c(Cl)c3)C(=O)N2C1` [Compound 928] (cyclo([Ac4c][NMeChg][NMedβ3hAla][NMeL]I[NMeA][Aze][NEtPhe(4-Me)][Sar][hPhe(3-Cl-4-CF3)][Hyp](Et))) the IC50 was 27 nM.
For `CC[C@H](C)[C@@H]1NC(=O)[C@H](C2CC2)N(C)C(=O)C[C@@H](C(=O)N2CCCCC2)N(C)C(=O)[C@H](C(C)C)N(C)C(=O)C2(CCCC2)NC(=O)[C@@H]2CCCN2C(=O)[C@H](CCc2ccc(C(F)(F)F)c(Cl)c2)NC(=O)CN(C)C(=O)[C@H](CC2CCCCC2)N(C)C(=O)[C@@H]2CCN2C(=O)[C@H](C)N(C)C1=O` [Compound 100] ([NMeGly(cPr)]I[NMeA][Aze][NMeCha][Sar][hPhe(3-Cl-4-CF3)]P[Ac5c][NMeV][NMeD]-Piperidide; lactam N-11), the IC50 was 7.4 nM.
`CC[C@H](C)[C@@H]1NC(=O)[C@H](CC(C)C)N(C)C(=O)C[C@@H](C(=O)N2CCCC2)N(C)C(=O)[C@H](C(C)C)N(C)C(=O)C2(CCCC2)NC(=O)[C@@H]2CCCN2C(=O)[C@H](CCc2ccc(C(F)(F)F)c(Cl)c2)NC(=O)CN(C)C(=O)[C@H](Cc2ccc(C)cc2)N(C)C(=O)[C@@H]2CCN2C(=O)[C@H](C)N(C)C1=O` [Compound 1866] ([NMeL]I[NMeA][Aze][NMePhe(4-Me)][Sar][hPhe(3-Cl-4-CF3)]P[Ac5c][NMeV][NMeD]-Pyrrolidide; lactam N-11) showed an IC50 of 2.8 nM.
